In general, IC50 refers to the concentration needed to halve the response being measured. High values mean weaker potency in that assay, low ones greater potency in that assay.

We go through 19 compounds from ChEMBL document CHEMBL1141662, “Synthesis and antiproliferative activity of aryl- and heteroaryl-hydrazones derived from xanthone carbaldehydes” (Eur J Med Chem, 2008).

Experiment [1] relates to MCF7. Nature of the experiment: Antiproliferative activity against human MCF7 cells assessed as cell viability at 10 uM after 24 hrs by MTT assay. It is filed as functional. Conditions: MCF7, 24 h, read-out: Activity. Background: Tetrazolium dyes change colour on reduction, which living cells bring about.
Experiment [2] relates to MCF7. Briefly: Antiproliferative activity against human MCF7 cells assessed as cell viability at 1 uM after 24 hrs by MTT assay. The experiment is classed as functional. The following applies: MCF7, 24 h, read-out: Activity.
Experiment [3] can be described thus: Antiproliferative activity against human KB 3.1 cells assessed as cell viability at 10 uM after 24 hrs by MTT assay. It is filed as functional. The following applies: KB 3-1, 24 h, read-out: Activity.
Experiment [4] in a line: Antiproliferative activity against human KB 3.1 cells assessed as cell viability at 1 uM after 24 hrs by MTT assay. The experiment is classed as functional. Conditions: KB 3-1, 24 h, read-out: Activity.
Experiment [5] in a line: Antiproliferative activity against human KB 3.1 cells after 24 hrs by MTT assay. Conditions: KB 3-1, 24 h. The experiment is classed as functional, cell-based.
A short description of experiment [6]: Antiproliferative activity against human KB 3.1 cells after 72 hrs by MTT assay. The experiment is classed as functional, cell-based. Conditions: KB 3-1, 72 h.
A short description of experiment [7]: Ratio of IC50 for human KB 3.1 cells after 24 hrs to IC50 for human KB 3.1 cells after 72 hrs by MTT assay. The experiment is classed as functional.
The subject of experiment [8] is MCF7. Nature of the experiment: Antiproliferative activity against human MCF7 cells after 24 hrs by MTT assay. The experiment is classed as functional, cell-based. The following applies: MCF7, 24 h.
For experiment [9], the system named is MCF7. Nature of the experiment: Antiproliferative activity against human MCF7 cells after 72 hrs by MTT assay. The experiment is classed as functional, cell-based. The following applies: MCF7, 72 h.
The subject of experiment [10] is MCF7. Briefly: Ratio of IC50 for human […] cells after 24 hrs to IC50 for human MCF7 cells after 72 hrs by MTT assay. The experiment is classed as functional.

Turning to `CC(=O)Oc1cc(OC(C)=O)c2c(=O)c3ccc(/C=N/Nc4ccccn4)cc3oc2c1`, the results for the viability at 10 µM (with MCF7 [1]; in experiment [3]) were 100% and 87%, respectively. The viability at 1 µM (with MCF7 [2]; in [4]) was 100% each time.

With `CC(=O)Oc1cc(OC(C)=O)c2c(=O)c3cccc(/C=N\Nc4ccccn4)c3oc2c1`, the values for the viability at 10 µM (with MCF7 [1]; in experiment [3]) were 79% and 90%, respectively. Besides, the viability at 1 µM in the experiment with MCF7 [2] was determined as 80%; in experiment [4] it was 95%.

Consider `CC(=O)Oc1cc(OC(C)=O)c2c(=O)c3cc(/C=N/NC4=NCCN4)ccc3oc2c1`, for which the viability at 10 µM (with MCF7 [1]; in [3]) was 14% each time. The figures for the viability at 1 µM (in the experiment with MCF7 [2]; in [4]) were 64% and 100%, respectively. Further, the IC50 in [5] is 11.3 µM; in experiment [6], 4.7 µM; in the experiment with MCF7 [8] it was 9.3 µM; in the experiment with MCF7 [9], 7 µM. The “Ratio IC50” value in experiment [7] amounted to 2.4; in the experiment on MCF7 [10] it was 1.3.

`CC(=O)Oc1cc(OC(C)=O)c2c(=O)c3ccc(/C=N/Nc4ccccc4)cc3oc2c1`: the viability at 10 µM (with MCF7 [1]; in experiment [3]) was 100% throughout. The viability at 1 µM (in the experiment with MCF7 [2]; in experiment [4]) was 100% throughout.

For `O=c1c2ccc(/C=N/Nc3ccccn3)cc2oc2cc(O)cc(O)c12`, the viability at 10 µM in the experiment with MCF7 [1] was 3%; in experiment [3], 2%. The viability at 1 µM was found to be 100% with MCF7 [2] and 77% in experiment [4].

With `O=c1c2ccc(/C=N/NC3=NCCN3)cc2oc2cc(O)cc(O)c12`, the viability at 10 µM stood at 70% with MCF7 [1] and 80% in experiment [3]. Moreover, the values for the viability at 1 µM (in the experiment with MCF7 [2]; in experiment [4]) were 73% and 93%, respectively.

Take `O=c1c2cccc(/C=N\NC3=NCCN3)c2oc2cc(O)cc(O)c12`: the viability at 10 µM was determined as 82% in the experiment on MCF7 [1] and 75% in experiment [3]. Also, the viability at 1 µM in the experiment with MCF7 [2] is 97%; in experiment [4], 90%.

Take `O=c1c2cccc(/C=N\Nc3ccccn3)c2oc2cc(O)cc(O)c12`: the viability at 10 µM in the experiment with MCF7 [1] was 12%; in experiment [3] it was 3%. The viability at 1 µM amounted to 86% in the experiment on MCF7 [2] and 96% in experiment [4].

Regarding `O=c1c2cc(/C=N/NC3=NCCN3)ccc2oc2cc(O)cc(O)c12`, the figures for the viability at 10 µM (in the experiment on MCF7 [1]; in experiment [3]) were 64% and 92%, respectively. For the same compound, the viability at 1 µM turned out to be 90% with MCF7 [2] and 99% in experiment [4].

For the compound `CC(=O)Oc1cc(OC(C)=O)c2c(=O)c3cc(/C=N/Nc4ccccc4)ccc3oc2c1`, the viability at 10 µM (in the experiment with MCF7 [1]; in experiment [3]) was 100% each time. The viability at 1 µM (with MCF7 [2]; in experiment [4]) was 100% in each case.

For the compound `O=c1c2cc(/C=N/Nc3ccccc3)ccc2oc2cc(O)cc(O)c12`, the viability at 10 µM in the experiment on MCF7 [1] came to 72%; in experiment [3], 82%. Also, the viability at 1 µM (with MCF7 [2]; in experiment [4]) was 100% in each case.

On to `O=c1c2ccc(/C=N/Nc3ccccc3)cc2oc2cc(O)cc(O)c12`, for which the viability at 10 µM is 100% in the experiment on MCF7 [1] and 61% in experiment [3]. Moreover, the viability at 1 µM (in the experiment on MCF7 [2]; in [4]) was 100% in each case.

Regarding `O=c1c2cccc(/C=N\Nc3ccccc3)c2oc2cc(O)cc(O)c12`, the values for the viability at 10 µM (with MCF7 [1]; in [3]) were 100% and 96%, respectively. The viability at 1 µM (in the experiment with MCF7 [2]; in [4]) was 100% each time.

For `CC(=O)Oc1cc(OC(C)=O)c2c(=O)c3ccc(/C=N/NC4=NCCN4)cc3oc2c1`, the viability at 10 µM (with MCF7 [1]; in [3]) was 13% throughout. Moreover, the results for the viability at 1 µM (with MCF7 [2]; in [4]) were 35% and 85%, respectively. Further, the IC50 in experiment [5] was 1.6 µM; in [6], 1.8 µM; with MCF7 [8] it was 1.9 µM; in the experiment on MCF7 [9] it was 2.4 µM. Further, the “Ratio IC50” value was determined as 0.9 in experiment [7] and 0.8 in the experiment on MCF7 [10].

Turning to `O=c1c2cc(/C=N/Nc3ccccn3)ccc2oc2cc(O)cc(O)c12`, the figures for the viability at 10 µM (in the experiment with MCF7 [1]; in [3]) were 41% and 90%, respectively. The values for the viability at 1 µM (with MCF7 [2]; in [4]) were 58% and 95%, respectively.

With `CC(=O)Oc1cc(OC(C)=O)c2c(=O)c3cccc(/C=N\Nc4ccccc4)c3oc2c1`, the viability at 10 µM with MCF7 [1] is 100%; in experiment [3] it was 82%. Also, the viability at 1 µM (in the experiment on MCF7 [2]; in experiment [4]) was 100% throughout.

Take `CC(=O)Oc1cc(OC(C)=O)c2c(=O)c3cc(/C=N/Nc4ccccn4)ccc3oc2c1`: the viability at 10 µM with MCF7 [1] stood at 70%; in experiment [3], 60%. Besides, the viability at 1 µM was found to be 85% in the experiment with MCF7 [2] and 98% in experiment [4].

As to `CC(=O)Oc1cc(OC(C)=O)c2c(=O)c3cccc(/C=N\NC4=NCCN4)c3oc2c1`, the viability at 10 µM with MCF7 [1] turned out to be 48%; in [3] it was 66%. Moreover, the viability at 1 µM in the experiment on MCF7 [2] was found to be 80%; in [4] it was 95%. The IC50 was 6.8 µM in [5], 6.5 µM in [6], 5.1 µM in the experiment on MCF7 [8] and 5.6 µM with MCF7 [9]. Also, the “Ratio IC50” value in experiment [7] turned out to be 1.05; in the experiment with MCF7 [10] it was 0.9.

For the compound `COc1cccc2c1C(=O)c1c(O)c3c(c(O)c1C2=O)C[C@@](O)(C(=O)CO)C[C@@H]3O[C@H]1C[C@H](N)[C@H](O)[C@H](C)O1` [DOXORUBICIN], the IC50 in experiment [5] turned out to be 0.01 µM; in experiment [6], 0.0004 µM.
